Molecular target: T1, mutant CFTR (Homo sapiens, UniProt P13569, DEL508-508)
T1 construct: expressed in transfected cells
Test: Fluorescence (HS-YFP) assay for CFTR activity, corrector assay
Format: cell-based
Conditions: CFBE41o- and FRT cells with stable expression of mutant CFTR, 24 h compound treatment
How it was run: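 Corrector activity: 24 h compound treatment of HS-YFP/mutant-CFTR CFBE41o- or FRT cells, followed by 30 min forskolin 20 μM + genistein 50 μM at 37° C. Iodide influx (100 mM final) was tracked as fluorescence quenching, with dF/dt extrapolated by exponential fitting; EC50 values derived.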

T1 sequence (P13569 with tags, fused parts or gaps DEL508-508): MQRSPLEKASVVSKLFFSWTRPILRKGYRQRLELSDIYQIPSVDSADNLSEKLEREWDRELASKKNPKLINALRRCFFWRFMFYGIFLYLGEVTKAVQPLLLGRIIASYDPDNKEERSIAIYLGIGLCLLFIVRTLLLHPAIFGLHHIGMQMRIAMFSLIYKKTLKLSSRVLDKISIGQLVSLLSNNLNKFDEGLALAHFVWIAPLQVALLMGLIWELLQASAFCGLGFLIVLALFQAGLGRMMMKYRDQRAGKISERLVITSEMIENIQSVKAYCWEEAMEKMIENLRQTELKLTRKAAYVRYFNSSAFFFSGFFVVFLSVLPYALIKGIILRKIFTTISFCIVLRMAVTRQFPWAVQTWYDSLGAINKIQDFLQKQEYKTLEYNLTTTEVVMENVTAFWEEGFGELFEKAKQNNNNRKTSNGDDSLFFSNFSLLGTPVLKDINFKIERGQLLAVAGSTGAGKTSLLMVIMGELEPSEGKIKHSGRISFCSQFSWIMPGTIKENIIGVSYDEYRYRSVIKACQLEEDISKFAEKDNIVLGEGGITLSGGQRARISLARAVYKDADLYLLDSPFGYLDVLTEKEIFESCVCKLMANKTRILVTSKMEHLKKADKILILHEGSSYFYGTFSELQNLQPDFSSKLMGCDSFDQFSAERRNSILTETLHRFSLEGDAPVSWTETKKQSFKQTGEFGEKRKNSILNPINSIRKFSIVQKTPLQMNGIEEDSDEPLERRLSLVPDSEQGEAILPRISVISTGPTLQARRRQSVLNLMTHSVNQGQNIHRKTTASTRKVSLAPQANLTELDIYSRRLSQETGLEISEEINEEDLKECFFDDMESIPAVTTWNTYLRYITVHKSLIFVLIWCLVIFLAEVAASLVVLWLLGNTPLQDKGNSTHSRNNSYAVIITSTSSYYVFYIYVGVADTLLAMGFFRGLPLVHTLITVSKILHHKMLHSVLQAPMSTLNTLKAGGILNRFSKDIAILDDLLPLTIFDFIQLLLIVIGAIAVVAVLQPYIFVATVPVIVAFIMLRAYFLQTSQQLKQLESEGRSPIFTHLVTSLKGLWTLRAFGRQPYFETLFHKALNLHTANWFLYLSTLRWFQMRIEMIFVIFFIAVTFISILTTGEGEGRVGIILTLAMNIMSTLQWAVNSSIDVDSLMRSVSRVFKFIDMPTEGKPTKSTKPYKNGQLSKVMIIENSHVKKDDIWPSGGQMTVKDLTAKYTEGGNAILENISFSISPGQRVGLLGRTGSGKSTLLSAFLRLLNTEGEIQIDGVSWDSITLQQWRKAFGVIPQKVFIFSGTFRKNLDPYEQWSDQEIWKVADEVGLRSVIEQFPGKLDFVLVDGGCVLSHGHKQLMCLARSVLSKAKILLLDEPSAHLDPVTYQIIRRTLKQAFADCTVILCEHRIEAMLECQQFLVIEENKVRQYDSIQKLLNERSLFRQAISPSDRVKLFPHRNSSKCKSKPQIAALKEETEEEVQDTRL

Structure (SMILES) | EC50 [µM]
Cc1nn(-c2cccc(C(=O)N(C)c3ccc4c(c3)CCO4)c2)c(C)c1Cl [compound 058] | < 1
Cc1c(Cl)c(C(F)(F)F)nn1-c1cccc(C(=O)Nc2ccc3c(c2C(=O)O)OCO3)c1 [compound 205, 5-[[3-[4-chloro-5-methyl-3-(trifluoromethyl)pyrazol-1-yl]benzoyl]amino]-1,3-benzodioxole-4-carboxylic acid] | > 2
CN(C(=O)c1cccc(-n2nc(C(F)(F)F)c(Cl)c2OC2CCN(C(=O)OC(C)(C)C)CC2)c1)c1ccc2c(c1)OCO2 [compound 157, Tert-butyl 4-[2-[3-[1,3-benzodioxol-5-yl(methyl)carbamoyl]phenyl]-4-chloro-5-(trifluoromethyl)pyrazol-3-yl]oxypiperidine-1-carboxylate] | < 1
Cc1nn(-c2cccc(C(=O)N(C)c3ccc4c(c3)CCCC4)c2)c(C)c1Cl [compound 044] | > 2
Cc1cc(C(F)(F)F)n(-c2cc(C(=O)N(C)c3ccc4c(c3)OCO4)ccn2)n1 [compound 169, N-(1,3-Benzodioxol-5-yl)-N-methyl-2-[3-methyl-5-(trifluoromethyl)pyrazol-1-yl]pyridine-4-carboxamide] | > 2
Cc1c(Cl)c(C(F)(F)F)nn1-c1cccc(C(=O)N(C)c2ccc3cn(C)nc3c2)c1 [compound 122, 3-[4-Chloro-5-methyl-3-(trifluoromethyl)pyrazol-1-yl]-N-methyl-N-(2-methylindazol-6-yl)benzamide] | 1 to 2
Cc1nc2ccc(NC(=O)c3cccc(-n4nc(C(F)(F)F)c(Cl)c4C)c3)cc2s1 [Int-148, 3-[4-Chloro-5-methyl-3-(trifluoromethyl)pyrazol-1-yl]-N-(2-methyl-1,3-benzothiazol-6-yl)benzamide] | < 1
Cc1c(C2CC2)c(C(F)(F)F)nn1-c1cccc(C(=O)N(C)c2ccc3c(c2)OCO3)c1 [compound 104, N-(1,3-Benzodioxol-5-yl)-3-[4-cyclopropyl-5-methyl-3-(trifluoromethyl)pyrazol-1-yl]-N-methyl-benzamide] | < 1
Cc1c(Cl)c(C(F)(F)F)nn1-c1cccc(C(=O)N(C)c2ccc3c(c2C(=O)O)OCO3)c1 [compound 208, 5-[[3-[4-chloro-5-methyl-3-(trifluoromethyl)pyrazol-1-yl]benzoyl]-methyl-amino]-1,3-benzodioxole-4-carboxylic acid] | > 2
Cc1nc2cc(F)c(N(C)C(=O)c3cccc(-n4nc(C(F)(F)F)c(Cl)c4OCc4ccc(C(=O)O)cc4)c3)cc2o1 [compound 212, 4-[[4-Chloro-2-[3-[(5-fluoro-2-methyl-1,3-benzoxazol-6-yl)-methyl-carbamoyl]phenyl]-5-(trifluoromethyl)pyrazol-3-yl]oxymethyl]benzoic acid] | < 1
CN(C(=O)c1cccc(-n2nc(C(F)(F)F)cc2OC2CCC(C(=O)O)CC2)c1)c1ccc2c(c1)OCO2 (mixture of isomers) [compound 215, 4-[2-[3-[1,3-benzodioxol-5-yl(methyl)carbamoyl]phenyl]-5-(trifluoromethyl)pyrazol-3-yl]oxycyclohexane carboxylic acid] | < 1
Cc1nn(-c2cccc(C(=O)N(C)c3cc4c(cc3Cl)OCCO4)c2)c(C)c1Cl [compound 032, N-(6-chloro-2,3-dihydro-1,4-benzodioxin-7-yl)-3-(4-chloro-3,5-dimethyl-pyrazol-1-yl)-N-methyl-benzamide] | < 1
Cc1nn(-c2cccc(C(=O)Nc3cccc4c3OC(F)(F)O4)c2)c(C)c1Cl [Int-022, 3-(4-Chloro-3,5-dimethyl-pyrazol-1-yl)-N-(2,2-difluoro-1,3-benzodioxol-4-yl)benzamide] | 1 to 2
Cc1c(Cl)c(C(F)(F)F)nn1-c1cccc(C(=O)N(C)c2ccc3c(c2CO)OCO3)c1 [compound 209, 3-[4-chloro-5-methyl-3-(trifluoromethyl)pyrazol-1-yl]-N-[4-(hydroxymethyl)-1,3-benzodioxol-5-yl]-N-methyl-benzamide] | > 2
CN(C(=O)c1cccc(-n2nc(C(F)(F)F)cc2OC2CCN(C(=O)CCC(=O)O)CC2)c1)c1ccc2c(c1)OC(F)(F)O2 [compound 264, 4-[4-[2-[3-[(2,2-Difluoro-1,3-benzodioxol-5-yl)-methyl-carbamoyl]phenyl]-5-(trifluoromethyl)pyrazol-3-yl]oxy-1-piperidyl]-4-oxo-butanoic acid] | 1 to 2
Cc1nc2ccc(N(C)C(=O)c3cccc(-n4nc(C)c(Cl)c4C)c3)cn2n1 [compound 079, 3-(4-Chloro-3,5-dimethyl-pyrazol-1-yl)-N-methyl-N-(2-methyl-[1,2,4]triazolo[1,5-a]pyridin-6-yl)benzamide] | > 2
Cc1nc2cc(Cl)c(N(C)C(=O)c3cccc(-n4nc(C(F)(F)F)c(Cl)c4C)c3)cc2o1 [compound 123, N-(5-Chloro-2-methyl-1,3-benzoxazol-6-yl)-3-[4-chloro-5-methyl-3-(trifluoromethyl)pyrazol-1-yl]-N-methyl-benzamide] | < 1
Cc1nn(-c2cccc(C(=O)N(C)c3ccc4oc(C5CC5)nc4c3)c2)c(C)c1Cl [compound 055, 3-(4-Chloro-3,5-dimethyl-pyrazol-1-yl)-N-(2-cyclopropyl-1,3-benzoxazol-5-yl)-N-methyl-benzamide] | 1 to 2
Cc1nc2ccc(NC(=O)c3cccc(-n4nc(C(F)(F)F)c(Cl)c4C)c3)cc2o1 [compound 120, 3-[4-Chloro-5-methyl-3-(trifluoromethyl)pyrazol-1-yl]-N-(2-methyl-1,3-benzoxazol-6-yl)benzamide] | 1 to 2
CN(C(=O)c1cccc(-n2cc(Cl)cn2)c1)c1ccc2c(c1)OCCO2 [compound 033, 3-(4-Chloropyrazol-1-yl)-N-(2,3-dihydro-1,4-benzodioxin-6-yl)-N-methyl-benzamide] | > 2
Cc1nc2cc(F)c(N(C)C(=O)c3cccc(-n4nc(C(F)(F)F)c(Cl)c4COc4ccc(C(=O)O)cc4)c3)cc2o1 [compound 234, 4-[[4-Chloro-2-[3-[(5-fluoro-2-methyl-1,3-benzoxazol-6-yl)-methyl-carbamoyl]phenyl]-5-(trifluoromethyl)pyrazol-3-yl]methoxy]benzoic acid] | < 1
CN(C(=O)c1cccc(-n2nc(C(F)(F)F)c(Cl)c2OCC23CC(C(=O)O)(C2)C3)c1)c1ccc2c(c1)OC(F)(F)O2 [compound 258, 3-[[4-Chloro-2-[3-[(2,2-difluoro-1,3-benzodioxol-5-yl)-methyl-carbamoyl]phenyl]-5-(trifluoromethyl)pyrazol-3-yl]oxymethyl]bicyclo[1.1.1]pentane-1-carboxylic acid] | < 1
COc1ccc(N(C)C(=O)c2cccc(-n3nc(C)c(Cl)c3C)c2)cc1OC [compound 014, 3-(4-Chloro-3,5-dimethyl-pyrazol-1-yl)-N-(3,4-dimethoxyphenyl)-N-methyl-benzamide] | > 2
CN(C(=O)c1cccc(-n2nc(C(F)(F)F)c(Cl)c2COc2cnc(C(=O)O)cn2)c1)c1ccc2c(c1)OC(F)(F)O2 [compound 226, 5-[[4-Chloro-2-[3-[(2,2-difluoro-1,3-benzodioxol-5-yl)-methyl-carbamoyl]phenyl]-5-(trifluoromethyl)pyrazol-3-yl]methoxy]pyrazine-2-carboxylic acid] | < 1
Cc1cn2cc(N(C)C(=O)c3cccc(-n4nc(C(F)(F)F)c(Cl)c4COc4ccc(C(=O)O)cc4)c3)ccc2n1 [compound 256, 4-[[4-Chloro-2-[3-[methyl-(2-methylimidazo[1,2-a]pyridin-6-yl)carbamoyl]phenyl]-5-(trifluoromethyl)pyrazol-3-yl]methoxy]benzoic acid] | < 1
Cc1nc2ccc(N(C)C(=O)c3cccc(-n4nc(C(F)(F)F)cc4OCc4ccc(C(=O)O)cc4)c3)cc2o1 [compound 195, 4-[[2-[3-[Methyl-(2-methyl-1,3-benzoxazol-6-yl)carbamoyl]phenyl]-5-(trifluoromethyl)pyrazol-3-yl]oxymethyl]benzoic acid] | < 1
CC(C)Cc1c(Cl)c(C(F)(F)F)nn1-c1cccc(C(=O)N(C)c2ccc3c(c2)OCO3)c1 [compound 101, N-(1,3-Benzodioxol-5-yl)-3-[4-chloro-5-isobutyl-3-(trifluoromethyl)pyrazol-1-yl]-N-methyl-benzamide] | < 1

Source: patent US12492193B2, “Pyrazole derivatives for the treatment of cystic fibrosis” (Fondazione Istituto Italiano Di Tecnologia, priority 2017, dated 2025)
